We go through 5 molecules from US20130029391A1, “METHOD OF PREPARING KODA USING LEMNA PAUCICOSTATA” (priority 2010, published 2013).

Series [1] relates to Lemna paucicostata SH strain allene oxide synthase SHLpAOS, SEQ ID NO: 4. The experiment in a line: kinetic analysis of SHLpAOS with 9-HPOT (A234 decrease, Hanes-Woolf plot). Type of series: biochemical. Here is the method:
(§1) SHLpAOS obtained from Lemna paucicostata SH strain was subjected to kinetic analysis. […] The substrate 9-HPOT was tested at the substrate concentration of 5-53 μM. The substrate 9-HPOT was added as an EtOH solution, and the final concentration of EtOH was adjusted to 1%. 100 μl of the reaction mixture was added into a cuvette, and a decrease in absorbance at 234 nm was scanned over time for 1 minute at an interval of 2 seconds using the SmartSpec Plus Spectrophotometer (Bio-Rad). From the A234 determined, the amount of the reaction product was calculated (e=25,000). […] It is believed that compared to AtAOS, SHLpAOS is a very useful AOS in the practical production of KODA.

Series [2] has as its target rice germ position 9-specific lipoxygenase r9-LOX1 (Oryza sativa, UniProt Q76I22). As to conditions: 40 mM phosphate buffer (pH 6.0), 0.1% Tween 80, 25° C; substrate 10-100 μM.
Experimental: Using a reaction mixture comprising 40 mM phosphate buffer (pH 6.0) and 0.1% Tween 80, the analysis was carried out at a temperature of 25° C. […] The amount of the reaction product was calculated from the [MUT] determined (e=25,000). Kinetic parameters were determined using the Hanes-Woolf plot ([S]/v versus [S] plot).
Series [3] has as its system Lemna paucicostata SH strain position 9-product specific lipoxygenase SHLpLOX (LpLOX-SH), SEQ ID NO: 3. As to conditions: 40 mM phosphate buffer (pH 6.0), 0.1% Tween 80, 25° C; substrate 10-100 μM. Here is the method: The sequence of SHLpLOSX obtained was introduced into a vector (pET23d, Novagen) for protein expression, and then transformed into Escherichia coli (BL21(DE3), Novagen), so as to allow the expression of SHLpLOX protein. Using this SHLpLOX protein, the activity test in KODA production was carried out. […] Using a reaction mixture comprising 40 mM phosphate buffer (pH 6.0) and 0.1% Tween 80, the analysis was carried out at a temperature of 25° C. […] The amount of the reaction product was calculated from the […] determined (e=25,000). Kinetic parameters were determined using the Hanes-Woolf plot ([S]/v versus [S] plot).

A short description of series [4]: Kinetic analysis of AOS, decrease in absorbance at 234 nm, Hanes-Woolf plot. Type of series: biochemical. As to conditions: SHLpAOS versus AtAOS. As for the experimental part: as §1
A short description of series [5]: Activity test in KODA production: AOS reacted with 9-HPOT reaction mixture, HPLC. Type of series: biochemical. The settings on record: 0.32 ng protein, 20 μl 9-HPOT reaction mixture, room temperature, 10 minutes; FIG. 5. As for the experimental part:
(§2) To 20 μl of this 9-HPOT reaction mixture, 0.32 ng of the SHLpAOS protein or A. thaliana-derived AOS (AtAOS) protein was added and reacted at room temperature for 10 minutes. After the reaction was over, the reaction was terminated by a heat treatment at 50° C. for 3 minutes. 10 μl of this solution was analyzed by HPLC. HPLC analysis was carried out with a column: Capcell pak C-18 UG120 (4.6×250 mm), and using mobile phase: 50% acetonitrile solution (0.02% TFA), flow rate: 1 ml/min, detection wavelength: 210 nm.

Substrate in series [6]: CC/C=C\C/C=C\C=C\[C@H](CCCCCCCC(=O)O)OO
The experiment in a line: kinetic analysis of AtAOS with 9-HPOT (A234 decrease, Hanes-Woolf plot). Type of series: biochemical, Arabidopsis thaliana. The settings on record: other: 40 mM phosphate buffer (pH 7.5), 1% EtOH, 25° C, substrate 5-53 μM. As for the experimental part:
as §2, §1

Series [7] is described as follows: Kinetic analysis of 9-LOX, absorbance at 234 nm, Hanes-Woolf plot. Type of series: biochemical. The settings on record: SHLpLOX versus r9-LOX1. Here is the method:
The substrate α-linolenic acid was tested at the substrate concentration of 10-100 μM. 100 μl of the reaction mixture was added into a cuvette, and absorbance at 234 nm was scanned over time for 10 minutes at an interval of 15 seconds using the SmartSpec Plus Spectrophotometer (Bio-Rad).

The nature of series [8]: Activity test in KODA production: HPLC of linolenic acid hydroperoxide formed by LOX. Type of series: biochemical. The settings on record: 5 mM linolenic acid solution, pH 7, room temperature, 30 minutes; FIG. 4. Here is the method:
HPLC analysis was carried out with a column: Capcell pak C-18 UG120 (4.6×250 mm, Shiseido), by using column temperature: 40° C., mobile phase: 50% acetonitrile solution (0.02% TFA), flow rate: 1 ml/min, detection wavelength: 210 nm.

The mark [9] stands for this setting: 40 mM phosphate buffer (pH 7.5), 1% EtOH, 25° C, substrate 5-53 μM.
The mark [10] stands for this setting: higher in SHLpAOS than in AtAOS.

rice germ position 9-specific lipoxygenase r9-LOX1, sequence (Q76I22 whole entry): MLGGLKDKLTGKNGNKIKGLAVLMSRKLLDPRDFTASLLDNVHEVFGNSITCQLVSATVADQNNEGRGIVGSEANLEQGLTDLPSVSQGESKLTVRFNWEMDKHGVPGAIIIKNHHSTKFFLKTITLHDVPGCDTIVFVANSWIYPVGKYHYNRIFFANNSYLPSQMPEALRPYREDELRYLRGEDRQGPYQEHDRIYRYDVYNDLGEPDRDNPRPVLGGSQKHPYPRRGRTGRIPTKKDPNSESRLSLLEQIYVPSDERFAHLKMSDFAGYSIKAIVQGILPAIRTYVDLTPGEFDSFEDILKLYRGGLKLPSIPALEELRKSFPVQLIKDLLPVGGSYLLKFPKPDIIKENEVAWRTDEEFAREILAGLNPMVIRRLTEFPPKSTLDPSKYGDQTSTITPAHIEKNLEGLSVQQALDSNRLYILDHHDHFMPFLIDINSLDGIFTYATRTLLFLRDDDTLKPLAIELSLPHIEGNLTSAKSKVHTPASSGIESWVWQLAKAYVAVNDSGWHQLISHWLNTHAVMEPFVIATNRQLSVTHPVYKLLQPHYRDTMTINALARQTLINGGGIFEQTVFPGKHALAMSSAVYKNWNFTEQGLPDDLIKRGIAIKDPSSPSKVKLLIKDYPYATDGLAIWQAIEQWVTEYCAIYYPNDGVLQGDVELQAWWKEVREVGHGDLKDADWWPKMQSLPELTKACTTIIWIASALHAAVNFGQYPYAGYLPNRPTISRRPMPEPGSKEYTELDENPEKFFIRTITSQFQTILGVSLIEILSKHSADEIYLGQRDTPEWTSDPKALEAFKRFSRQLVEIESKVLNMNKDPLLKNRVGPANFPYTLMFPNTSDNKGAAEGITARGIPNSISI

Regarding `CC/C=C\C/C=C\C=C\[C@H](CCCCCCCC(=O)O)OO` [9-HPOT, 9-hydroperoxylinolenic acid], in series [1] (setting [9]), the Km was found to be 7.1 ± 1.9 µM, the Vmax was found to be 4.7 ± 0.3 µmol/s and the kcat is 709.2 ± 44.3 s⁻¹. In series [1] (setting [10]), the “Kcat, SHLpAOS relative to AtAOS” value is “about 2.8 fold” and the “Vmax, SHLpAOS relative to AtAOS” value was “about 2.8 fold”.
On to `CC/C=C\C/C=C\C/C=C\CCCCCCCC(=O)O` [α-linolenic acid, cis-9,12,15-octadecatrienoic acid], for which, in series [2], the Km stood at 22.9 ± 1.6 µM, the Vmax turned out to be 2.8 ± 0.6 µmol/min and the kcat turned out to be 10.24 ± 2.077 s⁻¹. In series [3], the Km was 19.2 ± 4.1 µM, the Vmax stood at 3.0 ± 0.1 µmol/min and the catalytic constant (kcat) was determined as 12.8 ± 0.538 s⁻¹.

B1: SHLpAOS: allene oxide synthase derived from Lemna paucicostata SH strain (SEQ ID NO: 4), expressed in Escherichia coli; printed as LpLOX-SH in Table 2 (protein, listed as Lemna paucicostata)
chain: MSVSQSDDKAALVPQKTIPGSYGIPFITPLKDRLDFFSNEYQFFQSRVESYGSTIVRLNAPPGPFMAKNPQVIAILDGKSFPVLFDTSKVEKKNIFTGTYMPSTALTGGYRVCAYLDPSEPNHTKIKQLLLNILFNRKDHVIPEFHRAYEKLFDDMDAEIAKSGKFVFNDHNDGAAFEFLGRLFFGVSPSETELGAGGVKDANLWLFSQLCPLMTLGFLPKLLEDLLLHTFPLPPFLFKGKYQAIYKYISSVATDALTMAENLGLSREEAAHNLLFAVCFNSLGGVKVLFPGILRYIAQAGKNLQASLVSEVRSAVSSTGGELTIEALEKMPLTKSVVYESLRLDPPVKYQYGVVKKDMVIESHDRSYEVKAGETLFGYQPFATRDKKIFGPDADNFVAERFIGEEGAKVLRFVVWSNGPETTDPTPVDKQCPGKNLVVLISRLLVAEFFLRYDFFDAEIGAVPLAVKTTITSLTKATTR
As for B1, in series [4], the “affinity for 9-HPOT (Km) relative to AtAOS” value is recorded as “about 5 fold” and the “kcat/Km value relative to AtAOS” value is listed as “about 14 fold”. For the same molecule, the “AOS activity relative to AtAOS protein” value in series [5] is about 7 fold.

B2: Arabidopsis thaliana allene oxide synthase AtAOS (Arabidopsis thaliana) (protein)
chain: SGSETPDLTVATRTGSKDLPIRNIPGNYGLPIVGPIKDRWDYFYDQGAEEFFKSRIRKYNSTVYRVNMPPGAFIAENPQVVALLDGKSFPVLFDVDKVEKKDLFTGTYMPSTELTGGYRILSYLDPSEPKHEKLKNLLFFLLKSSRNRIFPEFQATYSELFDSLEKELSLKGKADFGGSSDGTAFNFLARAFYGTNPADTKLKADAPGLITKWVLFNLHPLLSIGLPRVIEEPLIHTFSLPPALVKSDYQRLYEFFLESAGEILVEADKLGISREEATHNLLFATCFNTWGGMKILFPNMVKRIGRAGHQVHNRLAEEIRSVIKSNGGELTMGAIEKMELTKSVVYECLRFEPPVTAQYGRAKKDLVIESHDAAFKVKAGEMLYGYQPLATRDPKIFDRADEFVPERFVGEEGEKLLRHVLWSNGPETETPTVGNKQCAGKDFVVLVARLFVIEIFRRYDSFDIEVGTSPLGSSVNFSSLRKASF
For B2, in series [6], the Km came to 36.3 ± 1.3 µM, the Vmax came out at 102 µmol/min, the kcat was determined as 256 ± 4.8 s⁻¹ and the kcat/Km amounted to 7e+06 ± 3.8e+06 M⁻¹ s⁻¹.

B3: SHLpLOX: position 9-product specific lipoxygenase derived from Lemna paucicostata SH strain (SEQ ID NO: 3), expressed in Escherichia coli (protein, listed as Lemna paucicostata)
chain: MAGFLQKVTDNLLHKAAKISGTVVLVKSNVVGFNDFADSFLDGLHELLGSGITFQLVSATVGDPKNGNKGKLGKPALLEKWITTGTFLAAGDSGFKVNFEWDEQLGVPGAVIVKNNHHGEFFLKSLTLDGAPGPRSRIHFDCNSWVYPYSTYNYDRVFFANDTYLPGEMPEPLKAYRAAELVNLRGDGVTRELKEGDRIYAYDLYNDLGDPDSGKELARPILGGSEEYPYPRRARTGRKLTKTDPKSEQRLPLVFSLNVYVPRDERFGHLKMSDFLAYSLKALAQGLVPALDAATDITPFEFDTFQDVLNLYEGGINLPTTPALENFKKQIPFPLVKELFRSDGENLFRLPTPSVIKADKFAWRTDEEFGREMLAGVNPVCIRLLKKFPPVSSLDPSIYRNQNSTMIADQLEKNMNGLSVEEALKQKKLFILDHHDSLMPYLERINTFNKIYASRTVLLLQDDGTLKPLAIELSLPVKGEKGAVSKVYTPAEHGVEGAVWQLAKAYVAVNDSGVHQLISHWLNTHATIEPFSIALNRQLSVVHPIYKLLHPHFRDTMNINAFARQILINAGGILEMTVFPGKYAMEMSSVVYKGWKLTDQALPVDLLNRGVAEKDPSSGELRLLIEDYPYAVDGLDVWNAIEEWVKEYCAIYYPSDKTLQDDTEVQAWWKEVREVGHGDKKDETWWPAMETVAELTQTCSTIIWVASALHAAVNFAQYPYAGYLPNRPTISRRFMPEPGTPEYEELETDPDRAFLKTITSQLQTLIGVSLIEILSRHSSDEIYLGQRVSAEWTSDAKALAAFKAFGEKLITIENKIIEMNVDSSLKNRNGPVKVPYTFLYPNTTDYTRVGGLTGRGIPNSISI
On to B3, for which the “kcat/Km value relative to r9-LOX1” value in series [7] is “about 1.6 fold”. Besides, in series [8], the “LOX activity (linolenic acid hydroperoxide formed) compared with r9-LOX1” value was “much higher activity than r9-LOX1”.
